Consider three compounds from ChEMBL document CHEMBL6177965, “Sealgamide: An Antitrypanosomal Lipopeptide Isolated from a Marine Okeania sp. Cyanobacterium” (J Nat Prod, 2025).

One experiment concerns Plasmodium falciparum. Briefly: Antimalarial activity against Plasmodium falciparum 3D7 infected in RBC incubated for 72 hrs by LDH assay. In kind it is functional, organism-based. As to conditions: 3D7, Erythrocyte.
Experiment [1] has as its system Trypanosoma brucei rhodesiense. Kind of experiment: Antitrypanosomal activity against Trypanosoma brucei rhodesiense IL-1501 incubated for 69 hrs by Alamar blue staining based analysis. Type of experiment: functional, organism-based. As to conditions: IL-1501, 69 h. In general terms: Resazurin is reduced to fluorescent resorufin, in cell work by metabolically active cells.

Another experiment concerns HeLa. Kind of experiment: Cytotoxicity against human HeLa cells assessed as inhibition of cell growth incubated for 72 hrs by MTT assay. Type of experiment: functional, cell-based. On the technique in general: Tetrazolium dyes change colour on reduction, which living cells bring about.

Consider `CCC[C@@H](C[C@@H](CC(=O)N(C)[C@@H](C(=O)N[C@H](C)C(=O)N[C@H](CC(C)C)C(=O)N(C)[C@@H](CC(C)C)C(=O)N[C@H](C(=O)N(C)[C@H](C(=O)N(C)[C@@H](CCC(N)=O)C(=O)N[C@@H](Cc1ccccc1)C(=O)N(C)[C@@H](CCC(N)=O)C(=O)N(C)[C@@H](Cc1ccc(OC)cc1)C(=O)O)C(C)C)[C@@H](C)O)[C@@H](C)CC)OC)OC`, for which the values for the IC50 (in the experiment on Plasmodium falciparum; in experiment [1]; with HeLa) were above 25 µM, 2.9 µM and above 30 µM, respectively.
Regarding `CCC[C@@H](C[C@@H](CC(=O)N(C)[C@@H](C(=O)N(C)[C@H](C)C(=O)N[C@H](CC(C)C)C(=O)N(C)[C@@H](CC(C)C)C(=O)N[C@H](C(=O)N(C)[C@H](C(=O)N(C)[C@@H](CCC(N)=O)C(=O)N[C@@H](Cc1ccccc1)C(=O)N(C)[C@@H](CCC(N)=O)C(=O)N(C)[C@@H](Cc1ccc(OC)cc1)C(=O)OC)C(C)C)[C@@H](C)O)[C@@H](C)CC)OC)OC`, the IC50 (commonly the concentration at which inhibition is half-maximal) was 2.1 µM in the experiment on Plasmodium falciparum, 0.65 µM in experiment [1] and above 30 µM in the experiment with HeLa.
In experiment [1], `N=C(N)c1ccc(OCCCCCOc2ccc(C(=N)N)cc2)cc1` [PENTAMIDINE] registered a half-inhibitory concentration (IC50) of 0.009 µM.
